Test results: paper PMC8269116 (Journal of psychopharmacology (Oxford, England), 2019)
“And” between values parts separate entries of the source, which are not always exact repeats. Identical values can stand only once.

Biological target: T1, DAT (Homo sapiens, UniProt Q01959)
Assay: [3H]dopamine uptake inhibition in HEK 293 cells overexpressing human DAT
Format: cell-based
Conditions: anomalous increase at some concentrations, non-sigmoidal curves

T1 sequence (Q01959 whole entry): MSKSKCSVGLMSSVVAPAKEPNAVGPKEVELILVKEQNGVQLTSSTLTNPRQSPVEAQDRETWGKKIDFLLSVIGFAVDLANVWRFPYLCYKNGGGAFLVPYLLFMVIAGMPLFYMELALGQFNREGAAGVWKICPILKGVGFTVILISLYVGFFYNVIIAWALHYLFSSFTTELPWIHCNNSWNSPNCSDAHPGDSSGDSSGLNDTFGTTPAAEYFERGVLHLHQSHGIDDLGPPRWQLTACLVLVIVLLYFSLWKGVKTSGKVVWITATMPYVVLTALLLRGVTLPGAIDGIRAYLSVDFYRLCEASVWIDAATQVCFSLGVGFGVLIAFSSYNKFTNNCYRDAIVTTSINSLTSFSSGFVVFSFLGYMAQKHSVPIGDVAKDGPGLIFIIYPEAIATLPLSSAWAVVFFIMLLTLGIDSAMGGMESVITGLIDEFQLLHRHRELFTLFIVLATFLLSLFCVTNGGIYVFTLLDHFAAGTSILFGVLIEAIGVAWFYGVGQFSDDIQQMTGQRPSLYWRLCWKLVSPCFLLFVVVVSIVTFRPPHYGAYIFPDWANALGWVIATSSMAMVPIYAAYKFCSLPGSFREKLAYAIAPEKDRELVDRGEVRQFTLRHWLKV

SMILES	increase of dopamine uptake
CNC(C)Cc1ccc(O)c(O)c1 (centres unmarked) [HHMA, 3,4-dihydroxymethamphetamine]	more than 200%

Same assay, conditions: partial inhibition of dopamine uptake

SMILES	maximum dopamine transporter inhibition [%]
CNC(C)C(=O)c1ccc(O)c(OC)c1 (centres unmarked) [HMMC, 4-hydroxy-3-methyoxymethcathinone]	26

Biological target: human 5-HT transporter (SERT) (Homo sapiens, UniProt P31645)
Sequence (P31645 whole entry): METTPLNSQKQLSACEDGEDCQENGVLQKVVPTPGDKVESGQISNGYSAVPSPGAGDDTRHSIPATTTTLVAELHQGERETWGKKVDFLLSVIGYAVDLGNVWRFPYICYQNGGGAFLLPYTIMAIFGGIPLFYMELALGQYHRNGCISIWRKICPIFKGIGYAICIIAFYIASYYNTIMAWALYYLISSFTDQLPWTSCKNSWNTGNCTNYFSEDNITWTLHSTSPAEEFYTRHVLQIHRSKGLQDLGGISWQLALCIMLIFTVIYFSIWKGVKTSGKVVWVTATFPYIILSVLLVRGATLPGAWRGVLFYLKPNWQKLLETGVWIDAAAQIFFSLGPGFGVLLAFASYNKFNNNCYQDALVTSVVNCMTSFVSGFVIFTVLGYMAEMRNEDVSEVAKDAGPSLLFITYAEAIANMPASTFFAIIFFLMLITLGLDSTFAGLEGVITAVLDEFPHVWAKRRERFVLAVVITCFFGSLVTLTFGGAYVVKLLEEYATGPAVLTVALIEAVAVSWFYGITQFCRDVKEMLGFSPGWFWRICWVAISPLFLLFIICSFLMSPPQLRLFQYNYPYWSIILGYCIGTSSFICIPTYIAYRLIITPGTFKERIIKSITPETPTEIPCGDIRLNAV
Assay: [3H]5-HT uptake inhibition in HEK 293 cells overexpressing human SERT
Format: cell-based
Conditions: read-out: SERT IC50; 5-HT uptake inhibition; mean and 95% confidence interval

SMILES	IC50 [µM]
CCCC(C(=O)c1ccc(O)c(O)c1)N1CCCC1 (centres unmarked) [HHPV, 3,4-dihydroxypyrovalerone]	> 100
CCCC(C(=O)c1ccc(O)c(OC)c1)N1CCCC1 (centres unmarked) [HMPV, 4-hydroxy-3-methyoxypyrovalerone]	> 100
CNC(C)C(=O)c1ccc(O)c(OC)c1 (centres unmarked) [HMMC, 4-hydroxy-3-methyoxymethcathinone]	> 100
CNC(C)Cc1ccc(O)c(O)c1 (centres unmarked) [HHMA, 3,4-dihydroxymethamphetamine]	65

Biological target: NET (Homo sapiens, UniProt P23975)
Sequence (P23975 whole entry): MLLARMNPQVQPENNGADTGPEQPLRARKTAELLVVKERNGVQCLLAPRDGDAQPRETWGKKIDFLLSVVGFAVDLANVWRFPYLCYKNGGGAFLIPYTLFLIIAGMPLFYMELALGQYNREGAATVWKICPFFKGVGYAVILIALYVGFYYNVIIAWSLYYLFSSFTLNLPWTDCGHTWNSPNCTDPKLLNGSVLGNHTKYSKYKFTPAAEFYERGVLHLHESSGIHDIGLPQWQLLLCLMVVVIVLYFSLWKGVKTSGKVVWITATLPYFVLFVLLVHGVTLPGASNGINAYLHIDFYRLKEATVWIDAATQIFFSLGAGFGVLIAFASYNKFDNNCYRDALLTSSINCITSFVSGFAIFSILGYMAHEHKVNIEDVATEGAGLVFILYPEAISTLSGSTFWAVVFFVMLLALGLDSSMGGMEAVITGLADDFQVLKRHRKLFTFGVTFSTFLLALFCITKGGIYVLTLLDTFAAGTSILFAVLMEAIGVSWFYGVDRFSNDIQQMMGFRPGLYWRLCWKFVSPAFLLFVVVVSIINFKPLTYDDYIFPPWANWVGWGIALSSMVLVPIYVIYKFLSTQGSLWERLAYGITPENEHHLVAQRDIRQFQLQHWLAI
Assay: Radioligand binding, N-methyl-[3H]nisoxetine displacement
Conditions: read-out: NET Ki; mean±SD, n=3

SMILES	Ki
CCCC(C(=O)c1ccc(O)c(O)c1)N1CCCC1 (centres unmarked) [HHPV, 3,4-dihydroxypyrovalerone]	0.11 ± 0.01 µM
CCCC(C(=O)c1ccc(O)c(OC)c1)N1CCCC1 (centres unmarked) [HMPV, 4-hydroxy-3-methyoxypyrovalerone]	6.2 ± 0.7 µM
CNC(C)C(=O)c1ccc(O)c(OC)c1 (centres unmarked) [HMMC, 4-hydroxy-3-methyoxymethcathinone]	4 µM and 4.2 µM
CNC(C)Cc1ccc(O)c(O)c1 (centres unmarked) [HHMA, 3,4-dihydroxymethamphetamine]	0.94 ± 0.14 µM

Biological target: T1, DAT
Assay: Radioligand binding, [3H]WIN35,428 displacement
Conditions: read-out: DAT Ki; mean±SD, n=3

SMILES	Ki
CCCC(C(=O)c1ccc(O)c(O)c1)N1CCCC1 (centres unmarked) [HHPV, 3,4-dihydroxypyrovalerone]	0.02 µM and 0.023 µM
CCCC(C(=O)c1ccc(O)c(OC)c1)N1CCCC1 (centres unmarked) [HMPV, 4-hydroxy-3-methyoxypyrovalerone]	2 ± 0.2 µM
CNC(C)C(=O)c1ccc(O)c(OC)c1 (centres unmarked) [HMMC, 4-hydroxy-3-methyoxymethcathinone]	> 8.5 µM
CNC(C)Cc1ccc(O)c(O)c1 (centres unmarked) [HHMA, 3,4-dihydroxymethamphetamine]	1.9 µM

Biological target: SERT (Homo sapiens, UniProt P31645)
Sequence (P31645 whole entry): as the sequence (P31645 whole entry) above
Assay: Radioligand binding, [3H]citalopram displacement
Conditions: read-out: SERT Ki; mean±SD, n=3

SMILES	Ki [µM]
CCCC(C(=O)c1ccc(O)c(O)c1)N1CCCC1 (centres unmarked) [HHPV, 3,4-dihydroxypyrovalerone]	> 7.4
CCCC(C(=O)c1ccc(O)c(OC)c1)N1CCCC1 (centres unmarked) [HMPV, 4-hydroxy-3-methyoxypyrovalerone]	> 7.4
CNC(C)C(=O)c1ccc(O)c(OC)c1 (centres unmarked) [HMMC, 4-hydroxy-3-methyoxymethcathinone]	> 7.4
CNC(C)Cc1ccc(O)c(O)c1 (centres unmarked) [HHMA, 3,4-dihydroxymethamphetamine]	> 7.4

Biological target: dopamine D2 receptors (Homo sapiens, UniProt P14416)
Sequence (P14416 whole entry): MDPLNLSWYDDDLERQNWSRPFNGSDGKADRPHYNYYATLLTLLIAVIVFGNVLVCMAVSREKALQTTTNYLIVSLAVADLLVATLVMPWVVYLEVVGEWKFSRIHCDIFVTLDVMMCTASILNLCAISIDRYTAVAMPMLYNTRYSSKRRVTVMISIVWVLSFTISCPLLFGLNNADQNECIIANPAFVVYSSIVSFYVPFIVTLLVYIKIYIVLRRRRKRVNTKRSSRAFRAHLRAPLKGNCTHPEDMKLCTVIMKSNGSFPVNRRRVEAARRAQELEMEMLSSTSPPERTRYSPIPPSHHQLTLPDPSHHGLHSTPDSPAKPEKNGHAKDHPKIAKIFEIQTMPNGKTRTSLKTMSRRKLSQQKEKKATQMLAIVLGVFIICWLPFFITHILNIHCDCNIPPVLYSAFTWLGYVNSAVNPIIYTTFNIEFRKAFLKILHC
Assay: Radioligand binding, [3H]spiperone displacement
Conditions: read-out: D2 Ki; mean±SD, n=3

SMILES	Ki [µM]
CCCC(C(=O)c1ccc(O)c(O)c1)N1CCCC1 (centres unmarked) [HHPV, 3,4-dihydroxypyrovalerone]	> 13
CCCC(C(=O)c1ccc(O)c(OC)c1)N1CCCC1 (centres unmarked) [HMPV, 4-hydroxy-3-methyoxypyrovalerone]	> 13
CNC(C)C(=O)c1ccc(O)c(OC)c1 (centres unmarked) [HMMC, 4-hydroxy-3-methyoxymethcathinone]	> 13
CNC(C)Cc1ccc(O)c(O)c1 (centres unmarked) [HHMA, 3,4-dihydroxymethamphetamine]	> 13

Biological target: T2, α1 adrenergic receptor (α1A) (Homo sapiens, UniProt P35348)
T2 sequence (P35348 1-466): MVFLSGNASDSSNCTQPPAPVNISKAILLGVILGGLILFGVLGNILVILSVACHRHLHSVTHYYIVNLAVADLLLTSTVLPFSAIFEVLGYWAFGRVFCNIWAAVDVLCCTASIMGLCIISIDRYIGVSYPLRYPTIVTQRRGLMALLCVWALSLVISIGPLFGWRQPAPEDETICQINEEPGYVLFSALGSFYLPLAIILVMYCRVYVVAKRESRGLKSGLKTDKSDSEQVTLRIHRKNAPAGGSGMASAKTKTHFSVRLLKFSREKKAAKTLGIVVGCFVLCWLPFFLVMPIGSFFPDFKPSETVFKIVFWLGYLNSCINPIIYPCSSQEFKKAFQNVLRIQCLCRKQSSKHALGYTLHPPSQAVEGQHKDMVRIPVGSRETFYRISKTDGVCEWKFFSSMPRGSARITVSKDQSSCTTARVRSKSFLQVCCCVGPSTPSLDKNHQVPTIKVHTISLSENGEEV
Assay: Radioligand binding, [3H]prazosin displacement
Conditions: read-out: α1A Ki; mean±SD, n=3

SMILES	Ki [µM]
CCCC(C(=O)c1ccc(O)c(O)c1)N1CCCC1 (centres unmarked) [HHPV, 3,4-dihydroxypyrovalerone]	> 9.5
CCCC(C(=O)c1ccc(O)c(OC)c1)N1CCCC1 (centres unmarked) [HMPV, 4-hydroxy-3-methyoxypyrovalerone]	> 9.5
CNC(C)C(=O)c1ccc(O)c(OC)c1 (centres unmarked) [HMMC, 4-hydroxy-3-methyoxymethcathinone]	> 9.5
CNC(C)Cc1ccc(O)c(O)c1 (centres unmarked) [HHMA, 3,4-dihydroxymethamphetamine]	> 9.5

Biological target: T3, α2 adrenergic receptor (α2A) (Homo sapiens, UniProt P08913)
T3 sequence (P08913 1-465): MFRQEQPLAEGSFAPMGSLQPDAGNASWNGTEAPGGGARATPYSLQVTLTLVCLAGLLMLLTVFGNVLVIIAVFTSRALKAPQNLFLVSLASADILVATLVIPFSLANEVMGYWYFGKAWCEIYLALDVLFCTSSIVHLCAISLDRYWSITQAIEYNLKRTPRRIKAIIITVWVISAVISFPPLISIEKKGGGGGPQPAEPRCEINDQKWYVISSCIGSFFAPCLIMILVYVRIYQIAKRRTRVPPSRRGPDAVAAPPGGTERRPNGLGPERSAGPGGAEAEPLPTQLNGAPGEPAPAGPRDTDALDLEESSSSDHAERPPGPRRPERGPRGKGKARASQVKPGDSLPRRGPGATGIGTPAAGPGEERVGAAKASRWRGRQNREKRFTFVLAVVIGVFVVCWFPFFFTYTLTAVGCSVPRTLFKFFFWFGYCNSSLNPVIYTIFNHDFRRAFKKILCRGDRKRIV
Assay: Radioligand binding, [3H]rauwolscine displacement
Conditions: read-out: α2A Ki; mean±SD, n=3

SMILES	Ki [µM]
CCCC(C(=O)c1ccc(O)c(O)c1)N1CCCC1 (centres unmarked) [HHPV, 3,4-dihydroxypyrovalerone]	> 4.7
CCCC(C(=O)c1ccc(O)c(OC)c1)N1CCCC1 (centres unmarked) [HMPV, 4-hydroxy-3-methyoxypyrovalerone]	> 4.7
CNC(C)C(=O)c1ccc(O)c(OC)c1 (centres unmarked) [HMMC, 4-hydroxy-3-methyoxymethcathinone]	> 4.7
CNC(C)Cc1ccc(O)c(O)c1 (centres unmarked) [HHMA, 3,4-dihydroxymethamphetamine]	1.3 ± 0.1

Biological target: T4, 5-HT1A receptor (Homo sapiens, UniProt P08908)
T4 sequence (P08908 1-422): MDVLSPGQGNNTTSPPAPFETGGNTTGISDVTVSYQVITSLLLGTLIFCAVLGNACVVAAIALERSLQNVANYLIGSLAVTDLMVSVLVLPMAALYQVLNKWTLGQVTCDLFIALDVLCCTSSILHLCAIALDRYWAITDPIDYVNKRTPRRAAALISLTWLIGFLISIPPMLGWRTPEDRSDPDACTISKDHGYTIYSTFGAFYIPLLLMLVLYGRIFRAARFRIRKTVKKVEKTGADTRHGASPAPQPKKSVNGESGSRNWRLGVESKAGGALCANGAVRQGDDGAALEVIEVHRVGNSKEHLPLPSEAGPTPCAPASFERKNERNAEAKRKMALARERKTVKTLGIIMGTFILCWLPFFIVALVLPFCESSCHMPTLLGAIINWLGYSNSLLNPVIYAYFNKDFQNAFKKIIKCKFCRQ
Assay: Radioligand binding, [3H]8-hydroxy-2-
Conditions: read-out: 5-HT1A Ki; mean±SD, n=3

SMILES	Ki [µM]
CCCC(C(=O)c1ccc(O)c(O)c1)N1CCCC1 (centres unmarked) [HHPV, 3,4-dihydroxypyrovalerone]	4.3 ± 1.6
CCCC(C(=O)c1ccc(O)c(OC)c1)N1CCCC1 (centres unmarked) [HMPV, 4-hydroxy-3-methyoxypyrovalerone]	> 17
CNC(C)C(=O)c1ccc(O)c(OC)c1 (centres unmarked) [HMMC, 4-hydroxy-3-methyoxymethcathinone]	> 18
CNC(C)Cc1ccc(O)c(O)c1 (centres unmarked) [HHMA, 3,4-dihydroxymethamphetamine]	> 18

Biological target: 5-HT2A receptor (Homo sapiens, UniProt P28223)
Sequence (P28223 whole entry): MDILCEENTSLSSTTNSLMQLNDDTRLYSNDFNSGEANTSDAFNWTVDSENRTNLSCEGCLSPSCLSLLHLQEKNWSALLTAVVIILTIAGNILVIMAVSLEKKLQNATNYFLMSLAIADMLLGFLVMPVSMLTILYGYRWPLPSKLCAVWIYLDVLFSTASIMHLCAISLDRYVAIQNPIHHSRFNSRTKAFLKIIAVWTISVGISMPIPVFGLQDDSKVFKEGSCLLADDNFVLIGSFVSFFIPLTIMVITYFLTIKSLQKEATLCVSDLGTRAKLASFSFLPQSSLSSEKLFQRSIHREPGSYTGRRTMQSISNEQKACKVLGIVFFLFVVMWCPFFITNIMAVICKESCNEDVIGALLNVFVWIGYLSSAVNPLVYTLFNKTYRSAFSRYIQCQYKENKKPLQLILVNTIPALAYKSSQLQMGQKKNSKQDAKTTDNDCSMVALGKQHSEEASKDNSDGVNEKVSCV
Assay: Radioligand binding, [3H]ketanserin displacement
Conditions: read-out: 5-HT2A Ki; mean±SD, n=3

SMILES	Ki [µM]
CCCC(C(=O)c1ccc(O)c(O)c1)N1CCCC1 (centres unmarked) [HHPV, 3,4-dihydroxypyrovalerone]	> 12
CCCC(C(=O)c1ccc(O)c(OC)c1)N1CCCC1 (centres unmarked) [HMPV, 4-hydroxy-3-methyoxypyrovalerone]	> 12
CNC(C)C(=O)c1ccc(O)c(OC)c1 (centres unmarked) [HMMC, 4-hydroxy-3-methyoxymethcathinone]	> 12
CNC(C)Cc1ccc(O)c(O)c1 (centres unmarked) [HHMA, 3,4-dihydroxymethamphetamine]	> 12

Biological target: T5, 5-HT2C receptor (Homo sapiens, UniProt P28335)
T5 sequence (P28335 33-458): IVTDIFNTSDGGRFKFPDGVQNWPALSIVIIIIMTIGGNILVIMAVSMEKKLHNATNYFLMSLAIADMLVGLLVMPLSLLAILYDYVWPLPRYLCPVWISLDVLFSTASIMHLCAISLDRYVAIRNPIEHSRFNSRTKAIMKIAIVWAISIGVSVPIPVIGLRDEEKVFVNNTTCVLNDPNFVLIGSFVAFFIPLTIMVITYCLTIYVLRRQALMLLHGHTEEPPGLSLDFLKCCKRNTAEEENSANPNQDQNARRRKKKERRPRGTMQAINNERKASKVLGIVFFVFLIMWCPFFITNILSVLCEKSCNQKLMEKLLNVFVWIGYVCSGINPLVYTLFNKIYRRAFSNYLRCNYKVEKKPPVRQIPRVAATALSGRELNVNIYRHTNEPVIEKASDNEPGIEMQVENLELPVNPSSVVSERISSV
Assay: biochemical
Format: binding
Conditions: read-out: 5-HT2c Ki; mean±SD, n=3

SMILES	Ki [µM]
CCCC(C(=O)c1ccc(O)c(O)c1)N1CCCC1 (centres unmarked) [HHPV, 3,4-dihydroxypyrovalerone]	> 5.1
CCCC(C(=O)c1ccc(O)c(OC)c1)N1CCCC1 (centres unmarked) [HMPV, 4-hydroxy-3-methyoxypyrovalerone]	> 5.1
CNC(C)C(=O)c1ccc(O)c(OC)c1 (centres unmarked) [HMMC, 4-hydroxy-3-methyoxymethcathinone]	> 5.1
CNC(C)Cc1ccc(O)c(O)c1 (centres unmarked) [HHMA, 3,4-dihydroxymethamphetamine]	> 5.1

Biological target: rat TAAR1 (Rattus norvegicus, UniProt Q923Y9)
Sequence (Q923Y9 whole entry): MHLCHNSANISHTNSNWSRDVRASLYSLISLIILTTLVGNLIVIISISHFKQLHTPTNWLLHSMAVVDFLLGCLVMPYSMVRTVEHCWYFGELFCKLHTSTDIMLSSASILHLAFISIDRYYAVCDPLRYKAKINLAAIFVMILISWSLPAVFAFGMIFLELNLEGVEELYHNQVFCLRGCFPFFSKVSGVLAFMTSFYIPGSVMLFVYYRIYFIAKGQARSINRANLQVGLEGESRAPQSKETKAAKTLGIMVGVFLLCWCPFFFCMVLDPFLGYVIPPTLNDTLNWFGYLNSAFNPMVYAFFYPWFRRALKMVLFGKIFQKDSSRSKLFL
Assay: Radioligand binding, [3H]RO5166017 displacement
Conditions: read-out: TAAR1rat Ki; mean±SD, n=3

SMILES	Ki [µM]
CCCC(C(=O)c1ccc(O)c(O)c1)N1CCCC1 (centres unmarked) [HHPV, 3,4-dihydroxypyrovalerone]	> 5.2
CCCC(C(=O)c1ccc(O)c(OC)c1)N1CCCC1 (centres unmarked) [HMPV, 4-hydroxy-3-methyoxypyrovalerone]	> 5.2
CNC(C)C(=O)c1ccc(O)c(OC)c1 (centres unmarked) [HMMC, 4-hydroxy-3-methyoxymethcathinone]	> 5.2
CNC(C)Cc1ccc(O)c(O)c1 (centres unmarked) [HHMA, 3,4-dihydroxymethamphetamine]	3 ± 0.3

Biological target: mouse TAAR1 (Mus musculus, UniProt Q923Y8)
Sequence (Q923Y8 whole entry): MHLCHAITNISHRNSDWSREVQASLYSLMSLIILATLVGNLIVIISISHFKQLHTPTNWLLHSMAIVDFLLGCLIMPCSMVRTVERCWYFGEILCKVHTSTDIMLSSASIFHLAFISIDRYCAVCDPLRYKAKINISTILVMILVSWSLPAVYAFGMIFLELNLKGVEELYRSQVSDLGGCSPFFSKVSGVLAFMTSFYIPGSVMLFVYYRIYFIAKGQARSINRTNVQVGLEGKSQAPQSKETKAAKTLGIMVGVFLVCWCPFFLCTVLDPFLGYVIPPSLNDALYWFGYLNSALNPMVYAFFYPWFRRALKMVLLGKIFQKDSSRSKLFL
Assay: Radioligand binding, [3H]RO5166017 displacement
Conditions: read-out: TAAR1mouse Ki; mean±SD, n=3

SMILES	Ki [µM]
CCCC(C(=O)c1ccc(O)c(O)c1)N1CCCC1 (centres unmarked) [HHPV, 3,4-dihydroxypyrovalerone]	> 4.4
CCCC(C(=O)c1ccc(O)c(OC)c1)N1CCCC1 (centres unmarked) [HMPV, 4-hydroxy-3-methyoxypyrovalerone]	> 4.4
CNC(C)C(=O)c1ccc(O)c(OC)c1 (centres unmarked) [HMMC, 4-hydroxy-3-methyoxymethcathinone]	> 4.4
CNC(C)Cc1ccc(O)c(O)c1 (centres unmarked) [HHMA, 3,4-dihydroxymethamphetamine]	> 4.4

Test system: not given
Assay: not given
Conditions: rats, subcutaneous 0.5–2 mg/kg MDPV; ref Anizan et al., 2016; cited from earlier work

SMILES	maximal concentration as % of the parent compound MDPV
CCCC(C(=O)c1ccc(O)c(O)c1)N1CCCC1 (centres unmarked) [HHPV, 3,4-dihydroxypyrovalerone]	12–19%
CCCC(C(=O)c1ccc(O)c(OC)c1)N1CCCC1 (centres unmarked) [HMPV, 4-hydroxy-3-methyoxypyrovalerone]	53–61%

Same assay, conditions: rats, subcutaneous injections of 0.5–2 mg/kg MDPV; ref Anizan et al., 2016; cited from earlier work

SMILES	Tmax [h]
CCCC(C(=O)c1ccc(O)c(O)c1)N1CCCC1 (centres unmarked) [HHPV, 3,4-dihydroxypyrovalerone]	3.43 to 4.28
CCCC(C(=O)c1ccc(O)c(OC)c1)N1CCCC1 (centres unmarked) [HMPV, 4-hydroxy-3-methyoxypyrovalerone]	3.15 to 3.43

Test system: not given
Assay: not given
Conditions: rat plasma, subcutaneous injections of methylone; ref Elmore et al., 2017; cited from earlier work

SMILES	amount in plasma as % of parent compound methylone
CNC(C)C(=O)c1ccc(O)c(OC)c1 (centres unmarked) [HMMC, 4-hydroxy-3-methyoxymethcathinone]	12–22%

Same assay, conditions: rat plasma, subcutaneous methylone; ref Elmore et al., 2017; cited from earlier work

SMILES	time at which Cmax was reached [min]
CNC(C)C(=O)c1ccc(O)c(OC)c1 (centres unmarked) [HMMC, 4-hydroxy-3-methyoxymethcathinone]	90 to 120
